Experimental data taken from ChEMBL document CHEMBL1151406, “An investigation of the antiviral activity of Podophyllum peltatum” (J Nat Prod, 1982).

Key:
[1] = test system: Measles morbillivirus; experiment: Antiviral activity against measles virus infected in african green monkey Vero cells assessed as inhibition of virus-induced cytopathic effect at 1 uM; assay type: functional; design: scale not given: the % may be the effect or the level left
[2] = Cytotoxicity against african green monkey Vero cells assessed as cell viability at 1 uM by trypan blue exclusion assay; assay type: cell-based; conditions: chlorocebus sabaeus, read-out: Activity
[3] = test system: Human alphaherpesvirus 1; experiment: Antiviral activity against HSV1 infected in african green monkey Vero cells assessed as plaque formation at 1 uM after 4 days by neutral red assay relative to control; assay type: functional
[4] = test system: Vero; experiment: Cytotoxicity against african green monkey Vero cells assessed as cell rounding at 1 uM; assay type: cell-based; conditions: chlorocebus sabaeus
[5] = test system: Measles morbillivirus; experiment: Antiviral activity against measles virus infected in african green monkey Vero cells assessed as cell rounding at 1 uM; assay type: functional
[6] = test system: Measles morbillivirus; experiment: Antiviral activity against measles virus infected in african green monkey Vero cells assessed as plaque formation at 1 uM after 5 days by neutral red assay relative to control; assay type: functional

Compound	Activity [1] [%]	viability at 1 µM [2] [%]	Activity [3] [%]	Activity [4] [%]	Activity [5] [%]	Activity [6] [%]
COc1cc([C@@H]2c3cc4c(c(O)c3C[C@H]3COC(=O)[C@@H]32)OCO4)cc(OC)c1O	25	91.9	31.1	5	>95	47.5
COc1cc([C@@H]2c3cc4c(cc3[C@H](O)[C@H]3COC(=O)[C@@H]23)OCO4)cc(OC)c1OC [AXL-1717]	100	89.9	84.4	15	5	41.5
COc1cc([C@@H]2c3cc4c(c(O)c3C[C@H]3COC(=O)[C@@H]32)OCO4)cc(OC)c1OC [BETA-PELTATIN A]	100	85.4	21.7	5	50	15.1
COc1cc([C@@H]2c3cc4c(cc3C[C@H]3COC(=O)[C@@H]32)OCO4)cc(OC)c1OC [DESOXYPODOPHYLLOTOXIN]	70	90.7	16.2	30	50	19.8
COc1cc([C@@H]2c3cc4c(cc3[C@H](O)[C@H]3COC(=O)[C@H]23)OCO4)cc(OC)c1OC [PODOFILOX]	25	91.7	11.7	80	>95	0.9
